From ChEMBL document CHEMBL1201862, “PubChem BioAssay data set” (2004)
Values joined by “and” are separate entries in the source; they are usually repeats but may differ in a detail not shown here. Equal entries are not always repeated.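 These data come from cells grown in 96-well plates and exposed to compound for 48 hours at five concentrations. Abbreviation: GI50, concentration required for 50% inhibition of growth.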 Active and inactive are the calls of the source. Cut-off read from the data, not from the text of the source: active = GI50 up to about 1.1 µM and inactive = higher.

Key:
Experiment in all cases: NCI-60 cell line screen, 48 h
[1] = system: IGROV-1
[2] = system: CCRF-CEM
[3] = system: SN12C
[4] = system: KM12
[5] = system: 786-0
[6] = system: NCI-H522
[7] = system: DU-145
[8] = system: SK-MEL-28
[9] = system: HT-29
[10] = system: SF-539
[11] = system: EKVX
[12] = system: MDA-MB-435
[13] = system: MDA-N
[14] = system: SF-268
[15] = system: LOX IMVI
[16] = system: TK-10
[17] = system: SK-OV-3
[18] = system: CAKI-1
[19] = system: SNB-19
[20] = system: T47D
[21] = system: MCF7
[22] = system: OVCAR-3
[23] = system: Hs-578T
[24] = system: A549
[25] = system: HCT-116
[26] = system: NCI-H23
[27] = system: BT-549
[28] = system: SK-MEL-5
[29] = system: M14
[30] = system: OVCAR-8
[31] = system: UACC-257
[32] = system: COLO 205
[33] = system: HOP-92
[34] = system: SW-620
[35] = system: HCT-15
[36] = system: RXF 393
[37] = system: A498
[38] = system: HCC 2998
[39] = system: HOP-62
[40] = system: Malme-3M
[41] = system: PC-3
[42] = system: UACC-62
[43] = system: ACHN
[44] = system: MOLT-4
[45] = system: U-251
[46] = system: K562
[47] = system: RPMI-8226
[48] = system: NCI-H460
[49] = system: SK-MEL-2
[50] = system: SR
[51] = system: OVCAR-4
[52] = system: SF-295
[53] = system: MDA-MB-231
[54] = system: OVCAR-5
[55] = system: SNB-75
[56] = system: UO-31
[57] = system: HL-60
[58] = system: NCI/ADR-RES
[59] = system: NCI-H226

For `C=CCN1C(=O)/C(=C/c2ccc(Cl)cc2)N=C1SC1OC(COC(C)=O)C(OC(C)=O)C(OC(C)=O)C1OC(C)=O` (stereo not drawn), the GI50 [1] was 22.4 µM (inactive) and 33 µM (inactive), the GI50 [2] was 37.2 µM (inactive) and the GI50 [3] was 16.5 µM (inactive). The GI50 [4] was 30.2 µM (inactive) and 22.8 µM (inactive), the GI50 [5] was 3.5 µM (inactive) and the GI50 [6] was 2.98 µM (inactive) and 3.81 µM (inactive). The GI50 [7] was 24 µM (inactive) and 14.6 µM (inactive), the GI50 [8] was 39.4 µM (inactive) and 56.9 µM (inactive) and the GI50 [9] was 35.6 µM (inactive). The GI50 [10] was 33 µM (inactive) and 25.3 µM (inactive), the GI50 [11] was 24.3 µM (inactive) and 33.4 µM (inactive) and the GI50 [12] was 14 µM (inactive) and 13.8 µM (inactive). For the same compound, the GI50 [13] was 25.8 µM (inactive), the GI50 [14] was 1.64 µM (inactive) and the GI50 [15] was 22.9 µM (inactive) and 29.9 µM (inactive). The GI50 [16] was 46.2 µM (inactive) and > 42.6 µM (inactive), the GI50 [17] was > 39.8 µM (inactive) and 27.1 µM (inactive) and the GI50 [18] was 10.9 µM (inactive) and 9.93 µM (inactive). The GI50 [19] was 15.8 µM (inactive), the GI50 [20] was 8.51 µM (inactive) and the GI50 [21] was 12.7 µM (inactive) and 7.41 µM (inactive). The GI50 [22] was 11.6 µM (inactive) and 18.5 µM (inactive), the GI50 [23] was 2.54 µM (inactive) and the GI50 [24] was 14.4 µM (inactive). The GI50 [25] was 5.02 µM (inactive), the GI50 [26] was 20 µM (inactive) and 25.1 µM (inactive) and the GI50 [27] was 31.3 µM (inactive) and 15.7 µM (inactive). The GI50 [28] was 26.6 µM (inactive) and 15.8 µM (inactive), the GI50 [29] was 28.1 µM (inactive) and the GI50 [30] was 15.7 µM (inactive) and 8.43 µM (inactive). For the same compound, the GI50 [31] was 18.9 µM (inactive) and 12.2 µM (inactive).
For `Brc1ccc(-c2[nH]c3ccccc3c2/N=N\c2ccccc2)cc1`, the GI50 [1] was 12.1 µM (inactive), the GI50 [2] was > 10 µM (inactive) and the GI50 [3] was 17.3 µM (inactive). For the same compound, the GI50 [32] was 15 µM (inactive), the GI50 [4] was 16.5 µM (inactive) and the GI50 [33] was 18.2 µM (inactive). The GI50 [34] was 17.5 µM (inactive), the GI50 [5] was 18.2 µM (inactive) and the GI50 [35] was 16.3 µM. The GI50 [6] was 17.6 µM (inactive), the GI50 [36] was 16.6 µM (inactive) and the GI50 [37] was 25.4 µM (inactive). The GI50 [38] was 16.8 µM (inactive), the GI50 [7] was 17.5 µM (inactive) and the GI50 [39] was 18.1 µM (inactive). For the same compound, the GI50 [8] was 21.2 µM (inactive), the GI50 [10] was 17.4 µM (inactive) and the GI50 [11] was 16.6 µM (inactive). For the same compound, the GI50 [12] was 19.1 µM (inactive), the GI50 [13] was 16.6 µM (inactive) and the GI50 [40] was 19.1 µM (inactive). For the same compound, the GI50 [14] was 17.9 µM (inactive), the GI50 [41] was 16.1 µM (inactive) and the GI50 [42] was 19.8 µM (inactive). The GI50 [15] was 30.8 µM (inactive), the GI50 [43] was 20.6 µM (inactive) and the GI50 [44] was 16.9 µM (inactive). For the same compound, the GI50 [45] was 17.6 µM (inactive), the GI50 [46] was 23.2 µM (inactive) and the GI50 [16] was 21.1 µM (inactive). For the same compound, the GI50 [47] was 21.7 µM (inactive), the GI50 [48] was 17.1 µM (inactive) and the GI50 [17] was 18.9 µM (inactive). For the same compound, the GI50 [18] was 14.7 µM (inactive), the GI50 [49] was 20.5 µM (inactive) and the GI50 [50] was 15.3 µM (inactive). For the same compound, the GI50 [51] was 16.3 µM (inactive), the GI50 [19] was 20.9 µM (inactive) and the GI50 [20] was 16.7 µM (inactive). For the same compound, the GI50 [21] was 16.1 µM (inactive), the GI50 [22] was 12.3 µM (inactive) and the GI50 [52] was 18.8 µM (inactive). For the same compound, the GI50 [53] was 19.1 µM (inactive), the GI50 [54] was 18.7 µM (inactive) and the GI50 [55] was 19.5 µM (inactive). The GI50 [23] was 20.7 µM (inactive), the GI50 [24] was 16.6 µM (inactive) and the GI50 [25] was 19 µM (inactive). For the same compound, the GI50 [26] was 18.2 µM (inactive), the GI50 [27] was 22 µM (inactive) and the GI50 [28] was 18.3 µM (inactive). The GI50 [56] was 16 µM (inactive), the GI50 [29] was 17.5 µM (inactive) and the GI50 [57] was 26.8 µM (inactive). For the same compound, the GI50 [31] was 19.3 µM (inactive).
`CC1=CC2C(O1)C1C(=O)C=CC(=O)C1=CC2[N+](=O)[O-]` (stereo not drawn) was tested, and the GI50 [1] was 17.9 µM (inactive), the GI50 [2] was 3.85 µM (inactive) and the GI50 [3] was 18.1 µM (inactive). The GI50 [32] was 5.73 µM (inactive), the GI50 [4] was 24.3 µM (inactive) and the GI50 [33] was 2.14 µM (inactive). The GI50 [34] was 3.61 µM (inactive), the GI50 [5] was 12.3 µM (inactive) and the GI50 [35] was 19.1 µM. For the same compound, the GI50 [6] was 1.71 µM (inactive), the GI50 [36] was 14.8 µM (inactive) and the GI50 [37] was 22.9 µM (inactive). For the same compound, the GI50 [38] was > 43.7 µM (inactive), the GI50 [7] was 25.4 µM (inactive) and the GI50 [39] was 21 µM (inactive). For the same compound, the GI50 [8] was 27.4 µM (inactive), the GI50 [9] was 16.5 µM (inactive) and the GI50 [10] was 33.5 µM (inactive). The GI50 [11] was 14.6 µM (inactive), the GI50 [12] was 12.2 µM (inactive) and the GI50 [13] was 23.1 µM (inactive). The GI50 [14] was 15 µM (inactive), the GI50 [41] was 19.9 µM (inactive) and the GI50 [42] was 18.6 µM (inactive). For the same compound, the GI50 [15] was 16.6 µM (inactive), the GI50 [43] was 5.3 µM (inactive) and the GI50 [44] was 3.48 µM (inactive). For the same compound, the GI50 [45] was 18.5 µM (inactive), the GI50 [46] was 7.67 µM (inactive) and the GI50 [16] was 16.1 µM (inactive). The GI50 [47] was 9.33 µM (inactive), the GI50 [48] was 18.6 µM (inactive) and the GI50 [17] was > 100 µM (inactive). The GI50 [18] was 5.01 µM (inactive), the GI50 [49] was 23.3 µM (inactive) and the GI50 [58] was 25.5 µM (inactive). The GI50 [59] was > 100 µM (inactive), the GI50 [51] was 17.3 µM (inactive) and the GI50 [19] was 34.6 µM (inactive). The GI50 [20] was 3.85 µM (inactive), the GI50 [21] was 6.75 µM (inactive) and the GI50 [22] was 16 µM (inactive). For the same compound, the GI50 [52] was 18.7 µM (inactive), the GI50 [53] was 19.8 µM (inactive) and the GI50 [54] was 24.5 µM (inactive). The GI50 [55] was 26.7 µM (inactive), the GI50 [23] was 18.1 µM (inactive) and the GI50 [24] was 19.4 µM (inactive). For the same compound, the GI50 [25] was 13.8 µM (inactive), the GI50 [26] was 19.9 µM (inactive) and the GI50 [27] was 15.8 µM (inactive). The GI50 [28] was 17.5 µM (inactive), the GI50 [56] was 5.22 µM (inactive) and the GI50 [29] was 14 µM (inactive). The GI50 [30] was 22.5 µM (inactive), the GI50 [57] was 8.11 µM (inactive) and the GI50 [31] was 16.9 µM (inactive).
